Results on 6 compounds are retold here after ChEMBL document CHEMBL5729456, “Compounds useful in HIV therapy” (2022).

The structures appear in SMILES notation.

This assay is described as follows: Jurkat Latency Reversal Assay: Jurkat HIV-luciferase clones were maintained in RPMI medium 1640 (Gibco by Life Technologies) containing 10% (vol/vol) fetal bovine serum (SAFC/Sigma-Aldrich) and 25 units/mL penicillin, 25 units/mL streptomycin (Gibco by Life Technologies), and were split 1:4 every 3 to 4 days to maintain a cell density of ˜0.3 to 1 million cells/mL. The Jurkat clones were maintained with the addition of 500 nM EFV in the medium. Three Jurkat cell clones (C16, I15, and N6), each harboring one or two integrated HIV proviruses expressing the luciferase reporter gene, were added at equal amounts for a total of 5,000 cells per well to 384-well plates containing compound titrations. Dose-response testing was performed on compounds dissolved in dimethyl sulfoxide (DMSO, Fisher Scientific, Merelbeke, Belgium) dispensed in duplicate serial 3-fold, 14-point titrations using a D300e Digital Droplet Dispenser (Hewlett-Packard) to give final assay concentrations of 10 μM to 2.1 pM in 50 μL of medium at 0.5% DMSO (vol/vol) final concentration. Cells and compound were incubated at 37° C. for 48 hours, unless otherwise indicated, followed by the addition of 20 μL of Steady-Glo® Luciferase (Promega). Luminescence resulting from the induction of the virally expressed luciferase was measured using an EnVision 2102 Multilabel Plate Reader (Perkin Elmer). Dose-response relationships were analyzed with GraphPad PRISM 6 using a four-parameter logistic regression model to calculate the concentration of compound that gives half-maximal response (EC50) and the maximal percent activation compared to the vehicle control.
Broadly, the EC50 is the concentration giving half of the maximal effect. For the compound `CN[C@@H](C)C(=S)N[C@H]1CCS[C@H]2CC(C)(C)[C@@H](C(=O)N[C@H]3c4ccccc4C[C@H]3C(=O)N[C@H]3CC[C@H](NC(=O)[C@@H]4Cc5ccccc5[C@@H]4NC(=O)[C@H]4N5C(=O)[C@@H](NC(=S)[C@H](C)NC)CCS[C@H]5CC4(C)C)CC3)N2C1=O`, the half-maximal effective concentration (EC50) is 32 nM.
Take `CN[C@@H](C)C(=O)N[C@H]1CCS[C@H]2CC(C)(C)[C@@H](C(=O)N[C@H](C(=O)N[C@H]3CC[C@H](NC(=O)[C@@H](NC(=O)[C@H]4N5C(=O)[C@@H](NC(=O)[C@H](C)NC)CCS[C@H]5CC4(C)C)c4ccccc4)CC3)c3ccccc3)N2C1=O`: the EC50 is 53.7 nM.
On to `CN[C@@H](C)C(=O)N[C@H]1CCS[C@H]2CC(C)(C)[C@@H](C(=O)N[C@H]3c4ccccc4CC[C@H]3C(=O)N[C@H]3CC[C@H](NC(=O)[C@@H]4CCc5ccccc5[C@@H]4NC(=O)[C@H]4N5C(=O)[C@@H](NC(=O)[C@H](C)NC)CCS[C@H]5CC4(C)C)CC3)N2C1=O`, for which the half-maximal effective concentration (EC50) was 324 nM.
Next, `CN[C@@H](C)C(=S)N[C@H]1CCS[C@H]2CC(C)(C)[C@@H](C(=O)N[C@H]3c4ccccc4CC[C@H]3C(=O)N[C@H]3CC[C@H](NC(=O)[C@@H]4CCc5ccccc5[C@@H]4NC(=O)[C@H]4N5C(=O)[C@@H](NC(=S)[C@H](C)NC)CCS[C@H]5CC4(C)C)CC3)N2C1=O`: 6.8 nM.
`CN[C@@H](C)C(=O)N[C@H]1CCS[C@H]2CC(C)(C)[C@@H](C(=O)N[C@H]3c4ccccc4C[C@H]3C(=O)N[C@H]3CC[C@H](NC(=O)[C@@H]4Cc5ccccc5[C@@H]4NC(=O)[C@H]4N5C(=O)[C@@H](NC(=O)[C@H](C)NC)CCS[C@H]5CC4(C)C)CC3)N2C1=O`: the half-maximal effective concentration (EC50) is 429 nM.
As for `CN[C@@H](C)C(=S)N[C@H]1CCS[C@H]2CC(C)(C)[C@@H](C(=O)N[C@H](C(=O)N[C@H]3CC[C@H](NC(=O)[C@@H](NC(=O)[C@H]4N5C(=O)[C@@H](NC(=S)[C@H](C)NC)CCS[C@H]5CC4(C)C)c4ccccc4)CC3)c3ccccc3)N2C1=O`, the 50% effective concentration (EC50) was 89.5 nM.
